Laboratory results from patent US20040259823A1, “Cationic amphiphiles as transfection vehicles” (priority 2001, published 2004).

What was measured:
COS-7 and HepG2 cells [1] = experiment: Transfection with pCMV GFP plasmid, % GFP positive cells by FACS (cell line not given); assay type: cell-based; conditions: cell line and helper lipid not given
Description: (§1) Transfections were carried out following standard protocols as is described in EP 0755924. In numerous publications variations of transfection protocols are given. A person acquainted with the field of non-viral transfections, in particular transfections using cationic amphiphiles will be able to use the cationic amphiphiles of the invention in transfection methods known per se. In standard experiments COS-7 cells are transfected with plasmid DNA containing the β-galactosidase reporter gene. Upon successful transfection the cell produces the enzyme β-galactosidase whose activity can be easily measured. Other plasmids comprising alternative reporter genes such as the gene encoding Green Fluorescent Protein or Chloroamphenicol Acetyl Transferase are suited as well. For analyzing stable transfection a plasmid containing the neomycin resistance gene can be used. Toxicity of the cationic amphiphiles towards the cells can be monitored qualitatively and quantitatively by visual inspection of the cells and by a protein determination.
A solution of cationic amphiphile in a 50/50 molar ratio with DOPE, DOPC or cholesterol in chloroform was dried under a stream of nitrogen. The residual solvent was removed under vacuum. The lipid film was hydrated in water at room temperature and sonicated to clarity in a bath sonicator immediately before use.
A 4.7 kb pair plasmid containing the GFP reporter gene under control of the cytomegalovirus immediate early gene promoter/enhancer (pCMV GFP).DNA was isolated from E. coli using a Qiagen Plasmid Kit (QIAGEN Inc, USA). The plasmid concentration was determined by measuring the absoption at 260 nm using the relation 1.0 OD=50 μg/ml. The OD260/OD280 value was 1.95.
(§2) COS-7 and HepG2 cells were cultured in Dulbecco's Modified Eagle Medium (DMEM Gibco The Netherlands) containing 7% of fetal calf serum, 2 mM L-Glutamine, 100 units/ml of penicilin and […] of streptomycin at 37° C. in CO2/air (1:19).
(§3) Cells (1×10^5 cells/well) were seeded in 12-well plates and were allowed to grow overnight.
(§4) The complex of cationic amphiphile/helper lipid (1:1) with pCMV GFP was prepared at the charge ratio 2.5:1 (15 nmol lipid and 1 μg DNA), in 100 μl 10 mM HEPES (pH=7.4, 150 mM NaCl). After 10-15 min incubation at room temperature, the resulting complex was diluted in 1 ml medium (DMEM) and 0.5 ml of the mixture was added to the cells and incubated for 4 h at 37° C. The transfection efficiency expressed as a percentage of GFP positive cells was measured by FACS (Fluorescence Activated Cell Soorting) 48 hours after the transfection.
(§5) Control wells underwent identical steps except that no cationic amphiphile was added.

COS-7 and HepG2 cells [2] = experiment: Cell survival after transfection (cell line not given); assay type: cell-based; conditions: cell line and helper lipid not given; for % surv / % surv mean: Table 11
Description: as §1, §2, §3, §4, §5
Throughout, for % surv mean: tested at 6.8 µM.

Structure (SMILES)	% TE (COS-7 and HepG2 cells [1]; Table 1)	% TE (COS-7 and HepG2 cells [1]; Table 2)	% TE (COS-7 and HepG2 cells [1]; Table 7)	% TE (COS-7 and HepG2 cells [1]; Table 8)	% TE (COS-7 and HepG2 cells [1]; Table 9)	% TE (COS-7 and HepG2 cells [1]; Table 10)	% surv cells (COS-7 and HepG2 cells [2]; Table 1)	% surv cells (COS-7 and HepG2 cells [2]; Table 2)	% surv cells (COS-7 and HepG2 cells [2]; Table 7)	% surv cells (COS-7 and HepG2 cells [2]; Table 8)	% surv cells (COS-7 and HepG2 cells [2]; Table 9)	% surv cells (COS-7 and HepG2 cells [2]; Table 10)	also measured
CCCCCCCC/C=C\CCCCCCCCC(CCCCCCCC/C=C\CCCCCCCC)c1cc[n+](C)cc1.[Cl-] [S2, reference compound]	25.17%	16.27%	51.9%	12.91%	7.55%	1.78%	62.6%	43.38%	82.51%	60.78%	65.19%	21.81%	% TE (COS-7 and HepG2 cells [1]; Table 11, first value): 41.2%; % TE mean (COS-7 and HepG2 cells [1]; Table 11): 42.8%; % TE (COS-7 and HepG2 cells [1]; Table 11, second value): 44.4%; % surv (COS-7 and HepG2 cells [2]; first value): 87.64%; % surv mean (COS-7 and HepG2 cells [2]): 87.24%; % surv (COS-7 and HepG2 cells [2]; second value): 86.84%
CCCCCCCC/C=C\CCCCCCCC[n+]1ccc(CCCCCCCCCCCCCCCCCCC)cc1.[Cl-] [SF14, 1-(9′-cis-octadecenyl)4nonadecyl-pyridinium Chloride]	–	–	–	–	–	–	–	–	–	–	–	–	% TE (COS-7 and HepG2 cells [1]; Table 4): 7.72%; % TE (COS-7 and HepG2 cells [1]; Table 5): 2.79%; % TE (COS-7 and HepG2 cells [1]; Table 6): 1.6%; % TE (COS-7 and HepG2 cells [1]; Table 11, first value): 2.41%; % TE mean (COS-7 and HepG2 cells [1]; Table 11): 3.1%; % TE (COS-7 and HepG2 cells [1]; Table 11, second value): 3.78%; % surv cells (COS-7 and HepG2 cells [2]; Table 4): 78.64%; % surv cells (COS-7 and HepG2 cells [2]; Table 5): 87.81%; % surv cells (COS-7 and HepG2 cells [2]; Table 6): 93.14%; % surv (COS-7 and HepG2 cells [2]; first value): 88.63%; % surv mean (COS-7 and HepG2 cells [2]): 87.805%; % surv (COS-7 and HepG2 cells [2]; second value): 86.98%
CCCCCCCC/C=C\CCCCCCCC[n+]1ccc(CCCCCCCCCCCCC)cc1.[Cl-] [SF30, 1-(9′-cis-octadecenyl)-4-tridecyl-pyridinium Chloride]	9.73%	16.61%	13.61%	3.09%	13.61%	5.32%	78.45%	46.45%	84.28%	75.35%	84.28%	60.16%	–
CCCCCCCCCCCCCc1cc[n+](CCCCCCCC)cc1.[Cl-] [SF32, 1-octyl-4-tridecyl-pyridinium Chloride]	0.83%	6.99%	1.56%	4.44%	5.19%	2.19%	71.07%	44.08%	81.56%	72.1%	56.32%	78.75%	–
CCCCCCCCCCCCCc1cc[n+](CCCCCCCCCC)cc1.[Cl-] [SF33, 1-decyl-4-tridecyl-pyridinium Chloride]	3.07%	9.71%	0.05%	3.82%	3.85%	5.77%	78.47%	39.82%	87.79%	75.05%	68.99%	69.94%	–
CCCCCCCCCCCCCc1cc[n+](CCCCCCCCCCCC)cc1.[Cl-] [SF34, 1-dodecyl-4-tridecyl-pyridinium Chloride]	13.51%	7.13%	4.3%	4.77%	4.3%	6.26%	56.91%	40.88%	84.47%	50.43%	68.01%	67.89%	–
CCCCCCCCCCCCCC[n+]1ccc(CCCCCCCCCCCCC)cc1.[Cl-] [SF35, 1-tetradecyl-4-tridecyl-pyridinium Chloride]	18.92%	10.48%	6.4%	3.23%	3.32%	3.23%	65.49%	42.35%	82.58%	72.37%	68.67%	70.39%	–
